Data published in patent publication US8952010B2, “Amino group-containing pyrrolidinone derivative” (Daiichi Sankyo Company, Limited, priority 2011, dated 2015).
Converted amounts (≈) assume the structure as drawn.

System: MRSA DB00026
Test: Measurement of antibacterial activity (MIC), standard methods of the Japanese Society of Chemotherapy
Format: cell-based, methicillin-resistant Staphylococcus aureus
Conditions: Staphylococcus aureus; bacteria: MRSA DB00026
Protocol: The measurement method of antibacterial activity of the compound of the present invention was carried out in accordance with the standard methods specified by the Japanese Society of Chemotherapy, and the results are shown in MIC (μg/mL) (Table 1).

| SMILES | MIC |
| --- | --- |
| COc1ccc2ncc(=O)n(CCCCNC3CC(=O)N(c4ccc5c(c4)NC(=O)CO5)C3)c2c1 (stereo not shown) [Example 1, 6-(4-{[4-(7-Methoxy-2-oxoquinoxalin-1(2H)-yl)butyl]amino}-2-oxopyrrolidin-1-yl)-2H-1,4-benzoxazin-3(4H)-one] | 0.12 µg/mL (≈ 0.251 µM) |
| COc1ccc2ncc(=O)n(CCCNC3CC(=O)N(c4ccc5c(c4)NC(=O)CO5)C3)c2c1 (stereo not shown) [Example 2, 6-(4-{[3-(7-Methoxy-2-oxoquinoxalin-1(2H)-yl)propyl]amino}-2-oxopyrrolidin-1-yl)-2H-1,4-benzoxazin-3(4H)-one] | ≤ 0.06 µg/mL |
| COc1ccc2ncc(=O)n(CCCCNC3CC(=O)N(c4ccc5c(c4)NC(=O)CO5)C3)c2n1 (stereo not shown) [Example 15, 6-Methoxy-4-(4-{[5-oxo-1-(3-oxo-3,4-dihydro-2H-1,4-benzoxazin-6-yl)pyrrolidin-3-yl]amino}butyl)pyrido[2,3-b]pyrazin-3(4H)-one] | ≤ 0.06 µg/mL |
| COc1ccc2ncc(=O)n(CCNC[C@H]3CC(=O)N(c4ccc5c(c4)NC(=O)CO5)C3)c2c1 [Example 16, 6-[(4R)-4-({[2-(7-Methoxy-2-oxoquinoxalin-1(2H)-yl)ethyl]amino}methyl)-2-oxopyrrolidin-1-yl]-2H-1,4-benzoxazin-3(4H)-one] | ≤ 0.06 µg/mL |

Results, then the compound that gave them:

| MIC | SMILES |
| --- | --- |
| ≤ 0.06 µg/mL | COc1ccc2ncc(=O)n(CC(F)CNC[C@H]3CC(=O)N(c4ccc5c(c4)NC(=O)CO5)C3)c2n1 (stereo partly shown) [Example 23] |
| 0.25 µg/mL (≈ 0.505 µM) | COc1ccc2ncc(=O)n(CC(O)CNC[C@H]3CC(=O)N(c4ccc5c(n4)NC(=O)CO5)C3)c2n1 (stereo partly drawn) [Example 22, 6-[(4R)-4-({[2-Hydroxy-3-(6-methoxy-3-oxopyrido[2,3-b]pyrazin-4(3H)-yl)propyl]amino}methyl)-2-oxopyrrolidin-1-yl)-2H-pyrido[3,2-b][1,4]oxazin-3(4H)-one] |
| ≤ 0.06 µg/mL | COc1ccc2ncc(=O)n(CCNC[C@H]3CC(=O)N(c4ccc5c(n4)NC(=O)CO5)C3)c2c1 [Example 19, 6-[(4R)-4-({[2-(7-Methoxy-2-oxoquinoxalin-1(2H)-yl)ethyl]amino}methyl)-2-oxopyrrolidin-1-yl]-2H-pyrido[3,2-b][1,4]oxazin-3(4H)-one] |
